Data: EP1661584A1, “Use of conjugates of amatoxins and phallotoxins with macromolecules for cancer and inflammation therapy” (Faulstich, Heinz, Dr., priority 2004, dated 2006)
pKd: −log10 of the molar value.

What was measured:
[1] = target: DNA-dependent RNA polymerase II (Homo sapiens, UniProt P24928+P30876); details: complex between amanitin and RNA polymerase II; cited from earlier work
[2] = system: actin; experiment: actin binding
Text: In all cases the macromolecular conjugates were distinctly more toxic to tumor cells (>1000) than the native toxins. Of high importance for this cytotoxic activity is the presence of a disulfide group in the linker moiety between toxin and macromolecule. After uptake into the tumor cells the disulfide group is cleaved by reduction releasing thiopropionyl-aminophalloidin or thiopropionyl-aminophallacidin into cytoplasm.

Substance	pKd [1]	actin binding compared with phalloidin [2]
amanitin	8.52	–
thiopropionyl-aminophalloidin	–	as tightly as phalloidin itself
